Data on four substances can be found in publication PMC3766633 (Biomaterials, 2013).

For data set [1], the system named is male Wistar rats. Put plainly: Subcutaneous injection, hypoglycemic effect. Particulars: 1 IU/kg. The class given is in vivo, rat.
The subject of data set [2] is male Wistar rats. Put plainly: In situ ileal loop absorption experiment, hypoglycemic effect. The settings on record: 50 IU/kg.
The nature of data set [3]: Precipitation / aggregation on mixing with LMWP during coupling. The class given is physicochemical. Particulars: mixing with LMWP or LMWP-SH during the coupling process, observation.
For data set [4] the following is noted: cell culture and animal studies; cited from earlier work.
In the next data set the test system is dogs. The settings on record: dog, in vivo; cited from earlier work.

Entries after “also recorded” stand apart in the source; their conditions may differ.

Regarding “Insulin-Polyethylene Glycol-Low Molecular Weight Protamine Conjugate [Insulin-PEG-LMWP]”, the “BGL level maintained till the end of the study (10 h)” value in the data set with male Wistar rats [1] (s.c.) was “around 70%”. Besides, in the data set on male Wistar rats [1] (s.c., 2 h), the “reduction of BGL two hours following subcutaneous injection” value was “about 30%”. For the same substance, the “bioactivity of insulin after conjugation with LMWP” value in the data set on male Wistar rats [1] (s.c., compared with s.c. insulin) was “not to be impaired”. Also, the “drop of BGL soon after administration” value with male Wistar rats [2] turned out to be 70%. Also, the “Tmin (time to reach BGLmin)” value in the data set on male Wistar rats [2] (male Wistar rats, N=6) is given as 6 h. Besides, the “BGL level remaining after the minimum” value in the data set with male Wistar rats [2] (over a period of 10 hours, % of initial value) was 30–45%. Further, in the data set on Caco-2 cell monolayer (Caco-2), the “transporting efficiency, times higher than that of native insulin, basolateral-to-apical flux” value is on record as 4.09 times. In the data set with Caco-2 cell monolayer (Caco-2, pH 7.4), the “Peff (permeability coefficient), apical-to-basolateral” value is reported as 5.33±0.03 ×10^-6 cm/s and the “Peff (permeability coefficient), basolateral-to-apical” value is on record as 4.95±0.15 ×10^-6 cm/s.

As for “Insulin-Polyethylene Glycol-Maleimide [Insulin-PEG-MAL]”, the “appearance on mixing / reaction with LMWP (precipitation of insoluble complexes)” value in data set [3] is on record as “transparent reaction mixture”.

In the case of “VSRRRRRRGGRRRR [LMWP, Low Molecular Weight Protamine]”, in data set [4], the “cell internalization potency relative to TAT” value is given as “equivalent”. Also, in the data set on dogs, the complement activation result was “only minor” and the hypotensive responses result is “non-detectable”.

On to insulin, for which the “appearance on mixing / reaction with LMWP (precipitation of insoluble complexes)” value in data set [3] is on record as “significant precipitation”. Further, the “time of return of BGL to the basal level (~100%)” value in the data set with male Wistar rats [1] (s.c.) is 6 h. The “BGLmin (minimum blood glucose level)” value with male Wistar rats [1] (sc., male Wistar rats, % of initial value, N=6) came to 65.75%. In addition, the “Tmin (time to reach BGLmin)” value with male Wistar rats [1] (sc., male Wistar rats, N=6) was determined as 1 h. The “AAC0→10h (area above the curve)” value worked out at 10547 %min with male Wistar rats [1] (sc., male Wistar rats, trapezoidal method, N=6) and 2751 %min with male Wistar rats [2] (male Wistar rats, trapezoidal method, N=6). Moreover, the “PA0→10h (relative pharmacological availability)” value in the data set on male Wistar rats [1] (sc., reference route, N=6) came to 100.00%; with male Wistar rats [2] (relative to s.c. insulin 1 IU/kg, male Wistar rats, N=6) it was 0.52%. Also, the “hypoglycemic effect (decrease in BGL compared with PBS negative control)” value in the data set on male Wistar rats [2] (male Wistar rats) is recorded as “no statistically significant decrease; also recorded: virtually no hypoglycemic effects”.
